Test results as given in patent US20120252773A1, “Method and composition for inhibiting cell proliferation and angiogenesis” (priority 2005, published 2012).

Experiments:
[1] = tested on: granulation tissue in fibrin Z-chambers; assay: In vivo fibrin-Z chamber assay, wound healing and microvessel density; settings: rat
Method: An in vivo fibrin-Z chamber assay (K. Amin et al., Cancer Biol. Ther. 2:173-178, (2003) was run to analyze wound healing and microvessel density. Plasminogen-free fibrinogen and thrombin were added to a sterile dual porous chamber through a port. To implant the chambers into rats, the animals were anesthetized with 35 mg/kg of sodium pentobarbital. Two incisions approximately 2 cm in length each were made on the dorsum, one over the mid vertebral and the other over the lower vertebral regions. Pockets were made in the subcutaneous fascia lateral to the incisions using blunt end scissors, and the chambers were placed deep into the pockets. The incision wounds were closed with an autoclip stapling device. Triple antibiotic ointment was applied to the incision area to prevent infection. At 24 h after the implantation, rats began to receive a single daily oral dose of (2) at 0, 3, or 30 mg/kg for 12 days. At the end of 12th day, animals were sacrificed. The chambers were harvested, fixed in 10% formalin overnight, and embedded in paraffin for histological analysis. To determine the effect of (2) on wound healing response, granulation tissue (GT) thickness was measured in microns on H&E-stained cross sections of fibrin Z-chambers using the Zeiss Axioskop II equipped with digital camera (Axiocam) and digital imaging software KS 300. To measure the effect of (2) on microvessel density, immunohistochemistry was performed on 4 μm thick paraffin-embedded sections. The sections were deparaffinized in Hemo-D, rehydrated in graded alcohols, subjected to endogenous peroxidase block in 3% H2O2, boiled in 10% citrate buffer for antigen retrieval, blocked with 5% donkey serum, and placed overnight at 4° C. with primary […] monoclonal antibody at 1:20 dilution. […] Images of three hot spots (×200 fields showing maximal vessel density) were captured from each section and the blood vessels counted using the Zeiss interactive digital imaging software KS300. A total of 15 high-power fields (HPFs, 40×) were counted for vessel density for each group.

[2] = tested on: DU-145 cells; assay: Cell cycle analysis by flow cytometry in DU-145 cells; type: cell-based, human; settings: DU-145, 10 μM
Method: DU-145 cells were treated with 10 μM of (2) for 6, 24, 48, 72, or 96 h. At the end of each time period, cells were hypotonically lysed in DNA staining solution (0.5 mg/ml propidium iodide, 0.1% sodium citrate, and 0.05% Triton X-100). The stained cells were analyzed by flow cytometry (FACS) using software provided by Phoenix Flow System.

[3] = tested on: HIF-1α protein in RAW 264.7 immortalized mouse macrophages; assay: HIF-1α protein expression by immunoblotting, RAW 264.7 macrophages; type: cell-based; settings: RAW 264.7 macrophages (normal cell line)
Method: Hypoxia experiments were performed in either of two ways. To produce a very low ambient oxygen concentration (effectively anoxia), we used a protocol in which cells were incubated in a 5% CO2-air atmosphere at 37° C. overnight and then placed in aluminum gas-exchange chambers maintained at 37° C. (Laderoute K R et al. Mol Cell Biol 22: 2515-2523, (2002); Laderoute K R et al. Mol Cell Biol 24: 4128-4137, (2004)). The chambers containing the cells were then placed in a 37° C. circulating water bath and the original atmosphere was repeatedly exchanged with 5% CO2-95% N2 using a manifold equipped with a vacuum pump and a gas cylinder. Atmospheric oxygen partial pressure (pO2) values of less than or equal to 0.01% (relative to air at pO2 of about 21%) can be achieved inside the chambers using this system. […] Atmospheric oxygen levels in both the chambers and the glove box have been measured and calibrated using a polarographic oxygen electrode (Oxygen Sensors, Inc., Norristown, Pa.). […]
We used immunoblotting to evaluate the experiments. […] After spinning at 9,000×g for 5 min at 4° C., the protein concentrations of the supernatants were determined by using a bicinchoninic acid assay (Pierce Biotechnology). […] Primary antibody binding was detected and visualized by using the ECL Plus Western Blotting Detection System (Amersham Pharmacia Biotech) according to the supplier's instructions. […]

C[C@@H]1Cc2cc(O)ccc2C2CCC3(C)/C(=C/COCCN(C)C)CCC3C21 (stereo partly drawn) [Compound (2), (E)-3-Hydroxy-7α-methyl-21-[(2-dimethylamino)ethoxy]-19-norpregna-1,3,5(10),17(20)-tetraene]
decrease in granulation tissue thickness ([1]; 3 mg/kg oral once daily for 12 days): about 20% | decrease in granulation tissue thickness ([1]; 30 mg/kg oral once daily for 12 days): more than 35% | decrease in microvessel formation as compared to the control ([1]; oral once daily for 12 days, dose not stated): 30% | more cells arrested in phase G1 compared with untreated control [2]: about 30% | HIF-1α protein expression [3]: did not influence
